In series [1] the target is T1, Aβ plaques (Homo sapiens, UniProt P05067). Put plainly: In vivo imaging of the retina in live mice after curcumin injection. The arrangement: species or system mouse. The conditions noted are these: single injection 7.5 mg/kg, two hours prior to imaging, excitation 546/15 nm, AD-Tg mice.
Description: To investigate the feasibility of our approach for noninvasive plaque detection, we conducted an in vivo imaging of the retina in live mice using a modified stereomicroscope (Leica S6E) with a wavelength-controlled light source and a digital camera.
Mice were anaesthetized with Ketamine 100 mg/ml/kg and Xylazine 20 mg/ml/kg. Mouse pupils were dilated to about 2 mm in diameter with 0.5% phenylephrine hydrochloride ophthalmic solution (Bausch & Lomb) combined with 0.5% tropicamide ophthalmic solution (Mydral; Bausch & Lomb). During the imaging process, the mice were positioned on a stage of the stereomicroscope, and the eye was covered with a drop of PBS supplemented with calcium and magnesium, which served as an optical coupling medium between the eye surface and the imaging lens. A modified stereomicroscope (Leica S6E) that was adjusted to visualize fluorescence and scatter signals at higher resolution was used to capture images (exposure time 750 ms. with gain 4). The modified stereomicroscope was assembled to include a Polychrome V (Till Photonics) variable wavelength light source, a MicroFire color digital camera (Optronics), and an additional 6× (double convex) magnifying lens, with a focal length of 10 cm. Images were repeatedly captured at several different angles, in order to visualize a larger field and to eliminate non-specific reflection signals.
Series [2] deals with T1, Aβ plaques. As to the kind of experiment: Ex vivo curcumin staining of postmortem human whole-mount retinas. It counts as binding. The text has this:
We also analyzed the human retinas with antibodies directed against human Aβ.
Autopsy eyes from Alzheimer's patients were procured from the Alzheimer's Disease Research Center, Department of Pathology, University of Southern California (Los Angeles, Calif.), under IRB protocols 99491 and 3201. Healthy donor eyes were purchased from National Disease Research Interchange (NDRI, Philadelphia, Pa.). NDRI has a human tissue collection protocol approved by a managerial committee and subject to National Institutes of Health oversight. Diseased and normal eyes were fixed and stored in 10% neutral buffered formalin. In addition, we used two healthy eyes that were frozen without fixation and stored at −80° C. Whole-mount retinas were prepared from the eyes and further studied by immunohistochemisty.
The samples were covered with GVA mounting media (Zymed).

Series [3] addresses T1, Aβ plaques. As to the kind of experiment: Ex vivo curcumin staining of brain cryosections and retinas of AD-Tg mice. It counts as binding, mouse.
Description: Brain cryosections (30 μm thick), retina cross sections (cryosections) (7 μm thick) and whole mount retinas were treated with a permeabilization/blocking solution containing 20% horse serum (Invitrogen) and 0.01-0.1% Triton X-100 (Sigma-Aldrich, St. Louis, Mo.). Sections were stained overnight at 4° C. with a specified combination of the following primary Abs in PBS containing 10% blocking solution: mouse anti-Aβ [human amino-acid residues 1-17; clone 6E10 (1:100; Milipore, Temecula, Calif.)]. […]
Micrographs of stained tissues were obtained on an Axio Imager Z1 ApoTome-equipped microscope (with motorized Z-drive) with AxioCam MRm monochrome camera ver. […] Quantitative analysis of Aβ plaque number and area (mm^2) was performed from two wholemounted retinas per mouse (n=4 mice per group). […] Quantitative analysis of Aβ plaque number and area (mm^2) in the brain was determined from three coronal sections (two hemispheres each) per mouse with 450 μm intervals, over an area covering hippocampal and cortical regions. […] Total area and quantitative levels of immunoreactivity were determined using a standardized custom histogram-based threshold technique, and then subjected to particle analysis.
Series [4] addresses T1, Aβ plaques. As to the kind of experiment: In vivo labeling of Aβ plaques after systemic curcumin administration, tissues examined afterwards. Also on record: species or system mouse.
Description: Mice were anesthetized and perfused with 4% ice-cold buffered PFA, and a group of mice were not perfused. Their eyes were enucleated and fixed immediately in 4% fresh PFA overnight. For whole mount retinas, the eyes were dissected and the anterior part was removed. The eyecups were soaked for 10 minutes in hyaluronidase (type I-S) (0.07 mg/ml) (Sigma) to liquefy and remove the vitreous residues, than washed for 10 minutes×3 in PBS, and the whole mount retinas were collected. For whole eye sectioning, the eyes were put in 30% sucrose in 4% PFA for 2 hours, than washed for 15 minutes×3 in PBS. The eyes were embedded in O.C.T and frozen slowly on dry ice than sagittal sectioned (7 μm) with cryostat. Brains were collected and fixed immediately in 4% fresh PFA overnight. The brains were put in 30% sucrose (in 4% PFA) gradient. Brains were washed for 15 minutes×3 in PBS, next embedded in O.C.T and frozen slowly on dry ice, then coronal sectioned (30 μm) with cryostat. […] Subsequently, brains and eyes were cryosectioned, or prepared for whole mount retina.

The record followed here is patent US10512699B2 (Cedars-Sinai Medical Center, priority 2008, dated 2019).

T1 sequence (P05067 672-713 limits assumed): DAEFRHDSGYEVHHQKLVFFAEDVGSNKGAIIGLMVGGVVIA

On to `COc1cc(/C=C/C(=O)CC(=O)/C=C/c2ccc(O)c(OC)c2)ccc1O` [curcumin, diferuloylmethane], for which, at Aβ plaques [1], the “Visibility of curcumin-labeled plaques in live mouse retina” value is listed as “curcumin-labeled plaques were visible”. For the same molecule, the “Co-localization of curcumin with anti-human Aβ immunolabeling” value on Aβ plaques [2] (human AD retinas, curcumin after immunolabeling) is listed as “confirmed their co-localization”. At Aβ plaques [2] (postmortem AD patient eyes (n=9), after Sudan Black B, none in non-AD eyes), the “Plaques detected by curcumin in human retinas” value is “found in all AD patient eyes examined”. The “Curcumin staining of plaques detected by anti-human Aβ antibodies” value on Aβ plaques [3] (hippocampus of AD-Tg mice, brain cryosections, ex vivo) is “had an affinity to the same plaques that were detected by antibodies specific to human Aβ”. Further, the “Curcumin labeling of retinal Aβ plaques” value on Aβ plaques [3] (retinas of AD-Tg mice, whole mount and cross-section, not in non-Tg (wt) mice) was “presence of Aβ plaques labeled by both curcumin and anti-human AP-antibodies”. For the same molecule, the “Detection of labeled plaques following administered curcumin” value on Aβ plaques [4] (i.v., single or multiple injections, retinas and brains) was “could be detected in the retinas and brains of AD-Tg mice, but not in the non-Tg (wt) controls”. On Aβ plaques [4] (mice, intravenous injection), the “Affinity for Aβ plaques in vivo” value is recorded as “high affinity for Aβ plaques in vivo”, the Blood-brain barrier crossing result is “crosses the blood-brain barrier” and the Blood-retina barrier crossing result was “also crosses the blood-retina barrier”. On Aβ plaques [4] (systemically at a single dose of 7.5 mg/kg or given orally), the “Detection of retinal Aβ plaques” value is listed as “effective in detecting retinal Aβ plaques”.
